{"source": "patent US7829499B2", "about": "“Granular pesticide preparation” (Kumiai Chemical Industry Co., Ltd., priority 2003, dated 2010)", "experiment": "pKa of the pesticidal active ingredient", "assay_type": "physicochemical", "from_the_text": "When the acidic pesticidal active ingredient having the above specified pKa is used, the pKa of the ingredient is, for example, measured by a method described in “Jikken Kagaku Kouza”, Vol. 5 (thermal measurement and equilibrium), p. 469-p. 474, Maruzen Co., Ltd. published Jan. 20, 1958 and elsewhere.", "data": [{"compound": "COCc1cccc(C(O)c2nc(OC)cc(OC)n2)c1NS(=O)(=O)C(F)F", "note": "(centres unmarked) [compound A, 2-[(4,6-dimethoxypyrimidin-2-yl)hydroxymethyl]-6-methoxymethyl-N-difluoromethanesulfonyl anilide]", "values": [{"measurement": "pKa", "result": 5.75}]}, {"compound": "CCc1cccc(C(O)c2nc(OC)cc(OC)n2)c1NS(=O)(=O)C(F)F", "note": "(centres unmarked) [compound B, 2-[(4,6-dimethoxypyrimidin-2-yl)hydroxymethyl]-6-ethyl-N-difluoromethanesulfonyl anilide]", "values": [{"measurement": "pKa", "result": 6.17}]}]}
